Where “and” joins values, the source holds several entries; their conditions need not be identical. Equal values may be shown once.
Target: T1, HEK 293 GPR73 (prokineticin 1 receptor) expressing cells (Homo sapiens, UniProt Q8TCW9)
T1 construct: expressed in transfected cells; host or cells: HEK 293
Test: PK1 functional assay: screening for PK1 antagonists on the FLIPR (calcium fluorescence)
Assay type: cell-based
Settings: HEK 293 GPR73 cells; for inhibition at 10 µM: HEK293, compound at 10 μM, read-out: Ca^2+ Mobilization % Inh @10 μM; for inhibition at 10 µM / Ca^2+ Mobilization % Inh @10 μM: multiple values = repeat tests; for IC50: PK1 ligand at EC50, multiple values = repeat tests, read-out: Ca^2+ Mobilization IC50; for Ca^2+ Mobilization % Inh @10 μM: compound at 10 μM
Experimental: At a time of 24 h prior to running the assay, in cell culture media (DMEM containing high Glucose and L-glutamine, 10% FBS, 1% Pen/Streptomycin, 1% Sodium Pyruvate, 20 mM HEPES, Zeocin 200 mg/L), 100 μL of 1.3*10^6/ml HEK 293 GPR73 (prokineticin 1 receptor) expressing cells were plated in a 96 well poly-d-lysine coated plate (Costar), and incubated at 37 C and 5% CO2. On the day in which the assay was run, the media was removed and 200 μL of 5× Calcium Plus Dye (Molecular Devices) which was previously resuspended with 200 mL of assay buffer [HBSS w/Ca^2+ and Mg^2+ w/o phenol red, 20 mM HEPES, 0.1% BSA, 10 mL probenecid (710 mg probenecid in 5 mL of 1N NaOH, to which was then added 5 mL HBSS containing 20 mM HEPES)] was added to each well of the 96-well plate. The plate was incubated at 37 C and 5% CO2 for 30 min in dark. The plate was removed and allowed to reach RT for 15 min in the dark. The assay was then run on the FLIPR. […] Baseline is described as the amount of relative fluorescence read when buffer alone is added to cells. Baseline was subtracted from all wells. Percent of control was calculated as follows:
(Baseline subtracted well value is divided by baseline subtracted max value)*100.
Percent inhibition is 100 minus the percent of control value.
IC50 values were calculated using GraphPad Prism.
Table 2 includes data generated from the PK1 functional assay described in Example 2.

T1 sequence (Q8TCW9 whole entry): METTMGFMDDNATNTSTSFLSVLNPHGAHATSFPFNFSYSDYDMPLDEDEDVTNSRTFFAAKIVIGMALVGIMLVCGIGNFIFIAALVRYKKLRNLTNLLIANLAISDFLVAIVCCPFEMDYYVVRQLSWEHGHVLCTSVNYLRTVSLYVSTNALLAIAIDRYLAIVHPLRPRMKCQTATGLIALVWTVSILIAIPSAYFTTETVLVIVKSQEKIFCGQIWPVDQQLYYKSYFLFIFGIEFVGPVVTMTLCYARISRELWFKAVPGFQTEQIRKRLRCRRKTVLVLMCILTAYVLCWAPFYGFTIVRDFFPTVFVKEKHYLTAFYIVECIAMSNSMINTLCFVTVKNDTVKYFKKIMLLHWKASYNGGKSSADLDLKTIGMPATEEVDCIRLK

Row | Structure (SMILES) | inhibition at 10 µM [%] | IC50 | Ca^2+ Mobilization % Inh @10 μM (10 µM) | Ca^2+ Mobilization % Inh @10 μM [%]
1 | COc1ccc(Cn2c(NCCNC(=N)N)nc(=O)n(Cc3ccc(C(=O)O)cc3)c2=O)cc1 [Cpd 101, 4-[4-(2-Guanidino-ethylamino)-3-(4-methoxy-benzyl)-2,6-dioxo-3,6-dihydro-2H-[1,3,5]triazin-1-ylmethyl]-benzoic acid] | 33 | > 10000 nM |  | 
2 | COc1ccc(Cn2c(NCC(C)(C)NC(=N)N)nc(=O)n(Cc3ccc(Cl)c(Cl)c3)c2=O)cc1 [Cpd 102] | 68 | 3490 nM |  | 
3 | COc1ccc(Cn2c(NCCNC(=N)Nc3ccc(Br)cc3)nc(=O)n(Cc3ccc(F)cc3)c2=O)cc1 [Cpd 103] | 99 | 23 nM |  | 
4 | COc1ccc(Cn2c(NCCN(C(=N)N)c3ccccn3)nc(=O)n(Cc3ccc(F)cc3)c2=O)cc1 [Cpd 104, N-{2-[5-(4-Fluoro-benzyl)-1-(4-methoxy-benzyl)-4,6-dioxo-1,4,5,6-tetrahydro-[1,3,5]triazin-2-ylamino]-ethyl}-N-pyridin-2-yl-guanidine] |  | 11 nM | 99% and 102% | 
5 | COc1ccc(Cn2c(NCCNC(=N)NCCc3ccccn3)nc(=O)n(Cc3ccc(F)cc3)c2=O)cc1 [Cpd 105] |  | 89 nM |  | 100
6 | CCOC(=O)c1ccc(NC(=N)NCCNc2nc(=O)n(Cc3ccc(F)cc3)c(=O)n2Cc2ccc(OC)cc2)cc1 [Cpd 106] | 89 | 508 nM |  | 
7 | COc1ccc(Cn2c(NCCNC(=N)Nc3ccc(F)cc3F)nc(=O)n(Cc3ccc(F)cc3)c2=O)cc1 [Cpd 107] | 101 | 12 nM |  | 
8 | CCCCCCCCCCNC(=N)NCCNc1nc(=O)n(Cc2ccc(F)cc2)c(=O)n1Cc1ccc(OC)cc1 [Cpd 108] | 89 | 369 nM |  | 
9 | COc1ccc(Cn2c(NCCNC(=N)N)nc(=O)n(Cc3ccc(OC(C)(C)C)cc3)c2=O)cc1 [Cpd 109] |  | 129 nM |  | 99
10 | COc1ccc(Cn2c(NCCNC(=N)N)nc(=O)n(Cc3ccc(O)cc3)c2=O)cc1 [Cpd 110, N-{2-[5-(4-Hydroxy-benzyl)-1-(4-methoxy-benzyl)-4,6-dioxo-1,4,5,6-tetrahydro-[1,3,5]triazin-2-ylamino]-ethyl}-guanidine] | 81 | 1160 nM |  | 
11 | COc1ccc(Cn2c(NCCNC(=N)N)nc(=O)n(Cc3csc(Cl)n3)c2=O)cc1 [Cpd 111] | 100 | 154 nM |  | 
12 | COc1ccc(Cn2c(NCCNC(=N)N)nc(=O)n(Cc3cc4ccccc4o3)c2=O)cc1 [Cpd 112] | 101 | 26 nM |  | 
13 | COc1ccc(Cn2c(NCCN(C)C(=N)N)nc(=O)n(Cc3ccc(Cl)c(Cl)c3)c2=O)cc1 [Cpd 113] | 101 | 11 nM and 24 nM and 46 nM and 76 nM | 100% and 102% | 
14 | COc1ccc(Cn2c(NCCNC(=N)NCC(F)(F)F)nc(=O)n(Cc3ccc(F)cc3)c2=O)cc1 [Cpd 114] | 99 | 41 nM |  | 
15 | COCCCNC(=N)NCCNc1nc(=O)n(Cc2ccc(F)cc2)c(=O)n1Cc1ccc(OC)cc1 [Cpd 115] | 99 | 47 nM |  | 
16 | COc1ccc(Cn2c(NCCNC(=N)N3CCCCC3)nc(=O)n(Cc3ccc(F)cc3)c2=O)cc1 [Cpd 116] | 99 | 57 nM |  | 
17 | COc1ccc(Cn2c(NCCNC(=N)N(C)c3ccccc3)nc(=O)n(Cc3ccc(F)cc3)c2=O)cc1 [Cpd 117] | 79 | 84 nM |  | 

Row | Structure (SMILES) | inhibition at 10 µM [%] | IC50 | Ca^2+ Mobilization % Inh @10 μM (10 µM) | Ca^2+ Mobilization % Inh @10 μM [%]
18 | COc1ccc(Cn2c(NCCN(C(=N)N)c3ccccc3F)nc(=O)n(Cc3ccc(F)cc3)c2=O)cc1 [Cpd 118, N-{2-[5-(4-Fluoro-benzyl)-1-(4-methoxy-benzyl)-4,6-dioxo-1,4,5,6-tetrahydro-[1,3,5]triazin-2-ylamino]-ethyl}-N-(2-fluoro-phenyl)-guanidine] |  | 6 nM | 98% and 102% | 
19 | COc1ccc(Cn2c(NCCNC(=N)Nc3ccc(F)cc3)nc(=O)n(Cc3ccc(F)cc3)c2=O)cc1 [Cpd 119, N-{2-[5-(4-Fluoro-benzyl)-1-(4-methoxy-benzyl)-4,6-dioxo-1,4,5,6-tetrahydro-[1,3,5]triazin-2-ylamino]-ethyl}-N′-(4-fluoro-phenyl)-guanidine] | 102 | 6 nM and 12 nM | 99% | 
20 | COc1ccc(Cn2c(NCCNC(=N)Nc3ccc(C)cc3)nc(=O)n(Cc3ccc(F)cc3)c2=O)cc1 [Cpd 120] | 100 | 9 nM and 15 nM | 102% | 
21 | COc1ccc(Cn2c(NCCNC(=N)NC(C)(C)C)nc(=O)n(Cc3ccc(F)cc3)c2=O)cc1 [Cpd 121] | 101 | 20 nM and 33 nM | 98% | 
22 | N=C(N)NCCNc1nc(=O)n(Cc2ccc(Cl)cc2)c(=O)n1Cc1ccc(N)cc1 [Cpd 122, N-{2-[1-(4-Amino-benzyl)-5-(4-chloro-benzyl)-4,6-dioxo-1,4,5,6-tetrahydro-[1,3,5]triazin-2-ylamino]-ethyl}-guanidine] | 78 | 1080 nM |  | 
23 | COc1ccc(Cn2c(NCCNC(=N)N)nc(=O)n(CC(C)(C)C)c2=O)cc1 [Cpd 123] | 34 | > 10000 nM |  | 
24 | COc1ccc(Cn2c(NCCNC(=N)N)nc(=O)n(CC3CCCC3)c2=O)cc1 [Cpd 124] | 74 | 1560 nM |  | 
25 | COc1ccc(Cn2c(NCCNC(=N)N)nc(=O)n(Cc3ccc(N)cc3)c2=O)cc1 [Cpd 125, N-{2-[5-(4-Amino-benzyl)-1-(4-methoxy-benzyl)-4,6-dioxo-1,4,5,6-tetrahydro-[1,3,5]triazin-2-ylamino]-ethyl}-guanidine] | 83 | 487 nM |  | 
26 | COc1ccc(Cn2c(NCCNC(=N)NC3C4CC5CC(C4)CC3C5)nc(=O)n(Cc3ccc(F)cc3)c2=O)cc1 (stereo not shown) [Cpd 126] | 95 | 115 nM |  | 
27 | COc1ccc(Cn2c(NCCNC(=N)Nc3ccc(OC(F)(F)F)cc3)nc(=O)n(Cc3ccc(F)cc3)c2=O)cc1 [Cpd 127] | 100 | 58 nM |  | 
28 | COc1ccc(Cn2c(NCCNC(=N)Nc3ccc(O)cc3)nc(=O)n(Cc3ccc(F)cc3)c2=O)cc1 [Cpd 128] | 100 | 40 nM |  | 
29 | NC(N)=NCCNc1nc(=O)n(Cc2ccc(Cl)cc2)c(=O)n1Cc1ccccc1 [Cpd 129] | 64 | 4780 nM |  | 
30 | N=C(N)NCCNc1nc(=O)n(Cc2ccc(Cl)cc2)c(=O)n1Cc1ccoc1 [Cpd 130] | 71 | 1870 nM |  | 
31 | COc1ccc(Cn2c(NC3CCC(NC(=N)N)CC3)nc(=O)n(Cc3ccc(F)cc3)c2=O)cc1 (stereo not shown) [Cpd 131] |  | > 10000 nM |  | 32
32 | COc1ccc(Cn2c(NCC(=O)NC(=N)NC(=O)OC(C)(C)C)nc(=O)n(Cc3ccc(F)cc3)c2=O)cc1 [Cpd 132, N-{2-[5-(4-fluoro-benzyl)-1-(4-methoxy-benzyl)-4,6-dioxo-1,4,5,6-tetrahydro-[1,3,5]triazin-2-ylamino]-acetyl}-N′-boc-guanidine] | 54 | 8500 nM |  | 
33 | COc1ccc(Cn2c(NCCNC(=N)Nc3ccccc3SC)nc(=O)n(Cc3ccc(F)cc3)c2=O)cc1 [Cpd 133] | 93 | 200 nM |  | 
